According to patent US20240300934A1, “COMPOUNDS FOR MODULATING MYCOBACTERIUM TUBERCULOSIS RESPONSE” (priority 2021, published 2024):

Columns and labels:
[1] = system: rv2390c′::GFP reporter Mtb strain; format: cell-based, Mycobacterium tuberculosis; conditions: for rv2390c′::GFP reporter signal upon Mtb exposure to high [Cl−] (in words): 10 μM, 250 mM NaCl; for rv2390c′::GFP Cl− response phenotype: compared to C6
Mtb in J774 cells = assay: Mtb growth in J774 macrophage-like cells (mKO fluorescence); format: cell-based, Mycobacterium tuberculosis; conditions: for Mtb growth in J774 cells (in words): 10 μM, 6 days post-infection; for Inhibition of Mtb growth in J774 cells phenotype: compared to C6
Description: For the tertiary screen of selected hit compounds in J774 murine macrophage-like cells, 30,000 J774 cells/well were seeded in bar-coded 384-well black, clear bottom plates in a 30 μl volume in J774 infection media (DMEM+10% FBS+1 mM sodium pyruvate+2 mM L-glutamine) using a ThermoFisher Multidrop Combi reagent dispenser, one day prior to assay start. On the day of the assay, log-phase Mtb constitutively expressing mKO were pelleted and resuspended in 1 ml basal uptake buffer (0.5% bovine serum albumin+25 mM dextrose+0.5 mM MgCl2+1 mM CaCl2+0.1% gelatin in phosphate buffered saline (PBS), passed 6× though a tuberculin syringe with a 25 G×5/8″ needle, then resuspended in J774 infection media to a final OD600=0.2. 10 μl of this bacterial suspension was added to each well of the 384-well plates containing the J774 cells, followed by addition of 10 μl of the appropriate compounds (pre-aliquoted in v-bottom plates in a 1:1 mix of PBS:J774 infection media). Addition of Mtb and compounds were conducted using a Janus Ministation. For each test plate, two columns of controls (16 wells each) were included, with one column consisting of treatment with DMSO as a carrier control (negative control), and the other column consisting of treatment with 5 μM rifampicin (positive control). This tertiary assay was done as a dose-response assay in duplicate runs, with compounds tested beginning at a final concentration of 20 μM and two-fold dilutions down to 0.039 μM. Plates were kept in humidified ziplock bags in a 37° C., 5% CO2 incubator. 6 days post-infection, mKO fluorescence signal was read using a PerkinElmer EnVision multimode plate reader (bottom read filter, excitation 530/8 nm, Bodipy TMR D555 single mirror, emission 579/25 nm). mKO fluorescence in DMSO-treated control samples were defined as 100% growth, and fluorescence observed in treatment conditions calculated as a percentage from that set value.
For J774 infection in 96-well plates, 180,000 J774 cells were seeded per well in 180 μl of J774 infection media one day prior to infection. On the day of the assay, log-phase Mtb constitutively expressing mKO were pelleted and resuspended in 1 ml basal uptake buffer, passed 6× though a tuberculin syringe with a 25 G×5/8″ needle, then resuspended in J774 infection media to a final OD600=0.2. Media was removed from 96-well plate containing the J774 cells, with 140 μl of fresh J774 infection media added back to each well. 40 μl of the Mtb suspension at OD600=0.2 was added to each well, followed by addition of appropriate concentration of compound or DMSO in a 20 μl final volume in J774 infection media (compound final concentration 10 μM, rifampicin final concentration 5 μM, DMSO final concentration 0.1%/well). Bacterial mKO fluorescence was read immediately after infection using a Biotek Synergy Neo2 microplate reader (bottom read monochromator, excitation 543/10 nm, emission 565/10 nm), and again 6 days post-infection. Plates were kept in humidified ziplock bags in a 37° C., 5% CO2 incubator. mKO fluorescence in DMSO-treated control samples were defined as 100% growth, and fluorescence observed in treatment conditions calculated as a percentage from that set value.

Mtb [2] = assay: Mtb growth assay in cholesterol media (OD600); format: cell-based, Mycobacterium tuberculosis; conditions: for Mtb growth in cholesterol media (in words): 10 μM, OD600; for Growth inhibition in cholesterol media phenotype: compared to C6
Mtb [3] = assay: Intrabacterial drug accumulation assay; conditions: 24 h exposure; 7H9 pH 7 ± 250 mM NaCl
J774 cells = assay: Intracellular drug accumulation assay in J774 cells; conditions: 24 h exposure; uninfected J774 cells
Mtb-infected J774 cells = conditions: 10 μM for 24 h; 5 days post-infection
Mtb [4] = conditions: mice that do not form caseous necrotic lesions; cited from earlier work
Mtb [5] = conditions: subset of mice failing to respond; cited from earlier work
[6] = system: Mtb in bone marrow-derived macrophages (BMDMs); assay: Mtb growth in primary murine bone marrow-derived macrophages (CFU); format: cell-based, Mycobacterium tuberculosis; conditions: 10 μM; added 2 hrs post-infection; eight-day time-course
Description: C57BL/6J wild type mice (Jackson Laboratories) were used for extraction of bone marrow-derived macrophages. Cells were harvested and expanded in DMEM containing 10% FBS, 15% L-cell conditioned media, 2 mM L-glutamine, 1 mM sodium pyruvate, and penicillin/streptomycin as needed in a 37° C. incubator in a 5% CO2 atmosphere. […] Macrophages were lysed with water containing 0.01% sodium dodecyl sulfate and a dilution series of the samples plated on 7H10 agar for CFU determination.

SMILES | rv2390c′::GFP reporter signal upon Mtb exposure to high [Cl−] (in words) [1] | rv2390c′::GFP Cl− response phenotype [1] | Mtb growth in J774 cells (in words) (Mtb in J774 cells) | Inhibition of Mtb growth in J774 cells phenotype (Mtb in J774 cells) | Mtb growth in cholesterol media (in words) (Mtb [2]) | Growth inhibition in cholesterol media phenotype (Mtb [2]) | intrabacterial accumulation in Mtb (Mtb [3]) | intracellular accumulation in J774 cells (J774 cells) | accumulation in Mtb-infected J774 cells (Mtb-infected J774 cells) | efficacy in BALB/c mice (Mtb [4]) | response in C3HeB/FeJ mice (Mtb [5]) | Mtb bacterial load / growth in primary murine BMDM (in words) [6]
CCSc1ccc(CN2CCN(c3nc4ccccc4o3)CC2)cc1 [JSF-4300, 2-(4-(4-(ethylthio)benzyl)piperazin-1-yl)benzo[d]oxazole] | continuing to demonstrate the phenotypes seen with the parental C6 compound | Y | continuing to demonstrate the phenotypes seen with the parental C6 compound | Y | continuing to demonstrate the phenotypes seen with the parental C6 compound | Y | robust accumulation | robust accumulation | robust accumulation | – | – | –
COc1nc2ccc(Br)cc2cc1[C@@H](c1ccccc1)[C@@](O)(CCN(C)C)c1cccc2ccccc12 [bedaquiline] | – | – | – | – | – | – | – | – | – | uniform efficacy across animals | heterogeneous response | –
NC(=O)c1cnccn1 [pyrazinamide] | – | – | – | – | – | – | – | – | – | uniform efficacy across animals | heterogeneous response | –
COc1ncc(CN2CCN(c3nc4ccccc4o3)CC2)cn1 [JSF-4271, 2-(4-((2-methoxypyrimidin-5-yl)methyl)piperazin-1-yl)benzo[d]oxazole] | lost the ability | N | loss of the ability to inhibit Mtb growth | N | no longer inhibited Mtb growth in cholesterol media | N | decreased accumulation | minimal accumulation | minimal accumulation | – | – | loss of the ability to inhibit Mtb growth
